Values belong to the molecule of their own block, whether it stands above or below them.
Assays:
[1] = test system: umami taste; assay: Effect on umami taste, intensity scale 0 to 10 (panelists); format: in vivo, human; details: 20 ppm in MSG in water (0.05% by weight); scale 0 to 10, control anchored as 5
Protocol: (§1) The effect of guanine and its nucleobase analog adenine on other basic tastes was examined and compared. The control solutions were prepared as follows:
(iv) An umami control solution of monosodium glutamate (MSG) in water (0.05% by weight).
(§2) Respective test solutions of adenine and guanine were prepared in different control solutions (2 or 20 ppm).
(§3) The taste perception of each sample was evaluated by a group of panelists using an intensity scale of 0 to 10, where 0=none, 5=moderate, 10=extremely strong. Panelists were instructed to anchor the intensity of the control solutions as 5 on the scale. The intensity scores were analyzed using one-way ANOVA with Post Hoc LSD multiple comparisons. Average intensity scores are reported in the following:
(§4) The effect of guanosine and its corresponding nucleotide, guanosine 5′-monophosphate (GMP), on additional basic tastes was examined and compared. The control solutions of sweet, bitter, salty and umami tastes were prepared as above in Example II. Respective test solutions of guanosine and GMP were prepared in different control solutions (2 or 20 ppm).

[2] = test system: sour taste; assay: Paired comparison of sour taste, test sample solution vs citric acid base solution (sensory panel); format: in vivo, human; details: for Sour taste enhancement, in words (table footnote): 5 and 100 ppb in base solution (citric acid 400 ppm); for Result (sour taste vs base solution): paired comparison
Protocol: The enhancement of sour taste by guanine and guanosine was subsequently examined. A base solution of citric acid (HOC(COOH)(CH2COOH)2) in water (400 ppm) was prepared and used in the following examples of the present invention. Test sample solutions of guanine and guanosine were prepared in the base solution (each of 5 and 100 ppb, respectively).
(§5) Sample pairs (a base solution and a test sample solution) were presented in a blind and pseudorandom order to a sensory panel. The enhancement of sour taste was recorded based on the percentage of the panelists who ranked the sample sourer. Binomial statistical analysis was used to compare the enhancement of sour taste for each sample pair. Significance was at 95% Confidence Interval (p<0.05). The test results are as follows:
The effect of botanical extract such as Chrysanthemum parthenium extract on sour taste was examined. A test sample solution of the extract in the base solution (15 ppm) was prepared.
Sensory evaluation was conducted using the paired comparison method. A base solution and a test sample solution, unidentifiable by using 3-digit codes, were presented in a blind and pseudorandom order to a sensory panel. The enhancement of sour taste was recorded based on the percentage of the panelists who ranked the sample sourer. The data were analyzed using binomial statistical analysis.

[3] = test system: bitter taste; assay: Effect on bitter taste, intensity scale 0 to 10 (panelists); format: in vivo, human; details: 2 ppm in caffeine in water (0.05% by weight); scale 0 to 10, control anchored as 5
Protocol: as §1
(ii) A bitter control solution of caffeine in water (0.05% by weight);
as §2, §3, §4

[4] = Taste description of the compound alone in water; format: in vivo, human; details: 1 ppm
[5] = test system: sour taste; assay: Paired comparison of sour taste against control solution of citric acid 450 ppm (sensory panel); format: in vivo, human
Protocol: A control sample solution of citric acid in water (450 ppm) and a test sample solution of guanosine in the base solution (1.25 ppm) were prepared. Sample pairs of (i) a base solution and a control sample solution; and (ii) a test sample solution and a control sample solution were each presented in a blind and pseudorandom order to a sensory panel. The enhancement of sour taste was recorded based on the percentage of the panelists who ranked the sample sourer.

[6] = pH level of sample solutions; format: physicochemical
[7] = test system: sour taste; assay: Paired comparison of sour taste, GMP solution vs guanosine solution (sensory panel); format: in vivo, human
Protocol: The effect of guanosine and GMP on sour taste was examined and compared. Respective test sample solutions of GMP and guanosine were prepared in the base solution (each of 5 and 100 ppb, respectively).
as §5, with “(a GMP” for “(a base”, “a guanosine” for “a test sample”, “(p<0.05).” for “(p<0.05). The test results are as follows:”

[8] = test system: sweet taste; assay: Effect on sweet taste, intensity scale 0 to 10 (panelists); format: in vivo, human; details: 20 ppm in sucrose in water (2.5% by weight); scale 0 to 10, control anchored as 5
Protocol: as §1
(i) A sweet control solution of sucrose in water (2.5% by weight);
as §2, §3, §4

[9] = test system: salty taste; assay: Effect on salty taste, intensity scale 0 to 10 (panelists); format: in vivo, human; details: 20 ppm in sodium chloride in water (0.3% by weight); scale 0 to 10, control anchored as 5
Protocol: as §1
(iii) A salty control solution of sodium chloride in water (0.3% by weight); and
as §2, §3, §4

[10] = test system: sour taste; assay: Sour taste intensity score in citric acid base solution, scale 0 to 10 (panelists); format: in vivo, human; details: scale 0 to 10, base anchored as 5
Protocol: The effect of adenine and guanine on sour taste was examined and compared. Respective test sample solutions of adenine and guanine were prepared in the base solution (each of 5 and 100 ppb, respectively).
as §3, with “The sour taste perception” for “The taste perception”, “of the base solution as 5” for “of the control solutions as 5”, “the following: […]” for “the following:”

[11] = 5 ppb in base solution (citric acid in water, 400 ppm)
[12] = 100 ppb in base solution (citric acid in water, 400 ppm)
[13] = guanosine 1.25 ppm in base solution (citric acid 400 ppm)
[14] = 5 ppb in base solution (citric acid 400 ppm)
[15] = 100 ppb in base solution (citric acid 400 ppm)

- pH Level ([6]; test solution: citric acid 400 ppm + guanosine 1.25 ppm (base alone pH 3.19)): 3.20
Compound: Nc1nc2c(ncn2[C@@H]2O[C@H](CO)[C@@H](O)[C@H]2O)c(=O)[nH]1 [Guanosine, guanosine]
- Umami, average intensity score [1]: 4.98
- Sour taste enhancement, in words (table footnote) [2]: *Guanine and guanosine provided intense and lasting sour taste enhancement.
- Result (sour taste vs base solution) [2, 11]: Sourer than the base solution
- Result (sour taste vs base solution) [2, 12]: Sourer than the base solution
- Bitter, average intensity score [3]: 7.00
- Sour taste of the compound itself [4]: Neither guanine nor guanosine possessed sour taste
- Taste description [4]: somewhat astringent, mouth-drying and slightly bitter
- Sour taste enhancement and pH, in words [5, 13]: enhanced sour taste without decreasing the pH level
- Sour taste enhancement compared with additional citric acid, in words [5, 13]: greater than that was achieved by 50 ppm citric acid
- Panelist Selection (%), ranked sourer ([5]; test (citric acid 400 ppm + guanosine 1.25 ppm) vs control (citric acid 450 ppm)): 100%
- Result (which solution of the pair tasted sourer) ([7]; 5 ppb each in base solution (citric acid 400 ppm)): Guanosine solution tasted sourer
- Result (which solution of the pair tasted sourer) ([7]; 100 ppb each in base solution (citric acid 400 ppm)): Guanosine solution tasted sourer
- Sweet, average intensity score [8]: 5.52
- Salty, average intensity score [9]: 5.22

Compound: Nc1nc2nc[nH]c2c(=O)[nH]1 [Guanine, guanine]
- Umami, average intensity score [1]: 4.82
- Sour taste enhancement, in words (table footnote) [2]: *Guanine and guanosine provided intense and lasting sour taste enhancement.
- Result (sour taste vs base solution) [2, 11]: Sourer than the base solution
- Result (sour taste vs base solution) [2, 12]: Sourer than the base solution
- Bitter, average intensity score [3]: 6.50
- Sour taste of the compound itself [4]: Neither guanine nor guanosine possessed sour taste
- Taste description [4]: somewhat astringent, mouth-drying and mouth-coating
- Sweet, average intensity score [8]: 4.80
- Intensity Score (sour taste) [10, 14]: 6.44
- Intensity Score (sour taste) [10, 15]: 7.08
- Salty, average intensity score [9]: 5.06

Compound: Nc1nc2c(ncn2[C@@H]2O[C@H](COP(=O)(O)O)[C@@H](O)[C@H]2O)c(=O)[nH]1 [GMP, guanosine 5′-monophosphate, reference compound]
- Umami, average intensity score [1]: 9.60
- Bitter, average intensity score [3]: 6.50
- Sweet, average intensity score [8]: 5.42
- Salty, average intensity score [9]: 5.34

Compound: Nc1ncnc2nc[nH]c12 [Adenine, adenine, reference compound]
- Umami, average intensity score [1]: 5.02
- Bitter, average intensity score [3]: 6.33
- Sweet, average intensity score [8]: 5.76
- Intensity Score (sour taste) [10, 14]: 5.14
- Intensity Score (sour taste) [10, 15]: 5.73
- Salty, average intensity score [9]: 5.16

- pH Level ([6]; control solution: citric acid in water, 450 ppm): 3.17
Compound: O=C(O)CC(O)(CC(=O)O)C(=O)O [citric acid, reference compound]
- Panelist Selection (%), ranked sourer ([5]; control (citric acid 450 ppm) vs base (citric acid 400 ppm)): 100%
- Panelist Selection (%), ranked sourer ([5]; control (citric acid 450 ppm) vs test (citric acid 400 ppm + guanosine 1.25 ppm)): 0%

— patent publication US20190364943A1, “NOVEL COMPOSITIONS FOR FLAVOR ENHANCEMENT” (International Flavors & Fragrances Inc., priority 2016, published 2019)
